Laboratory results: patent US20160122330A1, “PIPERIDINYL BENZOIMIDAZOLE DERIVATIVES AS MPGE-1 INHIBITORS” (NOVASAID AB, priority 2013, published 2016)

Tests used:
[1] = target: T1, recombinant membrane-bound human mPGEs-1 (Homo sapiens, UniProt O14684); experiment: Thiobarbituric acid assay (TBA-MDA assay), inhibition of human mPGEs-1; format: biochemical; conditions: arithmetic mean values
T1 sequence (O14684 1-152): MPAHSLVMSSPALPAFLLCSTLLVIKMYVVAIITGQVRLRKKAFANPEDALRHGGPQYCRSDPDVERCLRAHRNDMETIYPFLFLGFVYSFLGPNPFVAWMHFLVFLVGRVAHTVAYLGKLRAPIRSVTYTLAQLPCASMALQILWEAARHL
Text: Malondialdehyde is a product of lipid peroxidation and reacts with thiobarbituric acid forming a red product that absorbs light at 535 nm (W. G. Niehaus, Jr and B. Samuelsson, Eur. J. Biochem 6, 126 (1968)) and is also fluorescent. The extinction coefficient of the TBA-MDA conjugate is 1.56×10^5 M^−1 cm^−1 (E. D. Wills. Biochem. J. 113, 315 (1969). The method used for detection of inhibition of mPGEs-1 is based on the detection of the amount of remaining PGH2. This method was described more than 20 years ago by Basevich et al (Bioorg. Khim. 1983, 9(5), 658-665).
The assay used was a modified variant and used citric acid instead of the TCA-TBA-HCl reagent described in the original assay. In this assay, recombinant membrane-bound human mPGEs-1 was incubated with PGH2. The reaction was stopped by adding citric acid to a final pH 3 and a large excess of iron(II) chloride (20 mM) to convert any remaining PGH2 into MDA and 12-HHT. TBA reagent was finally added (0.67%) and the samples were heated at 80° C. for 30 min. The fluorescence of the conjugate was measured at 485/545 nm.
The product of mPGEs-1 (PGE2) was not measured directly in this assay, but rather the remaining substrate (PGH2) indirectly by adding FeCl2 that converts PGH2 into MDA and 12-HHT. As a positive control, a known mPGEs-1 inhibitor, MK-886, was used and the inhibition afforded by the new inhibitors was compared with that obtained from MK-886.

[2] = system: A549 lung carcinoma cells; experiment: A549 cell-assay, cellular PGE2 synthesis; format: cell-based; conditions: Homo sapiens, PGE2 content by EIA, TNFalfa/IL-1beta stimulated cells, 10 μM arachidonic acid, arithmetic mean values
Procedure: Prostaglandin detection kits were purchased from Cayman Chemicals and used according to the instruction of the manufacturer.
A549 lung carcinoma cells, seeded at a density of 10,000 cells/well, were grown in 96 well tissue culture plates. TNFalfa (5 ng/mL) and IL-1beta (5 ng/mL) were added and the cells were incubated for 16 hours. Cells were washed in PBS and test compounds at the appropriate concentration in HBSS/0.1% BSA were added. After 30 minutes of incubation with test compounds, 10 μM arachidonic acid was added and cells were further incubated for 30 minutes. Supernatant was collected and analyzed for PGE2 content by EIA according to manufacturer's instructions.

| Structure (SMILES) | IC50 [1] [µM] | IC50 [2] [µM] |
| --- | --- | --- |
| Cc1cc2nc(N3CCC(C(=O)N[C@@H]4CCOC4)CC3)n(-c3ccc(C(F)(F)F)cn3)c2cc1Cl [Example 4, (R)-1-(6-chloro-5-methyl-1-(5-(trifluoromethyl)pyridin-2-yl)-1H-benzo[d]imidazol-2-yl)-N-(tetrahydrofuran-3-yl)-piperidine-4-carboxamide] | 0.046 | 0.122 |
| Cc1cc2c(cc1Cl)nc(N1CCC(C(=O)N[C@@H]3CCOC3)CC1)n2-c1cccc(C(F)(F)F)n1 [Example 1, (R)-1-(5-chloro-6-methyl-1-(6-(trifluoromethyl)pyridin-2-yl)-111-benzo[d]imidazol-2-yl)-N-(tetrahydrofuran-3-yl)piperidine-4-carboxamide] | 0.018 | 0.028 |
| Cc1cc2c(cc1Cl)nc(N1CCC(C(=O)N[C@@H]3CCOC3)CC1)n2-c1ccc(C(F)(F)F)cn1 [Example 3, (R)-1-(5-chloro-6-methyl-1-(5-(trifluoromethyl)pyridin-2-yl)-1H-benzo[d]imidazol-2-yl)-N-(tetrahydrofuran-3-yl)-piperidine-4-carboxamide] | 0.058 | 0.085 |
| Cc1cc2nc(N3CCC(C(=O)N[C@@H]4CCOC4)CC3)n(-c3cccc(C(F)(F)F)n3)c2cc1Cl [Example 2, (R)-1-(6-chloro-5-methyl-1-(6-(trifluoromethyl)pyridin-2-yl)-1H-benzoimidazol-2-yl)-N-(tetrahydrofuran-3-yl)piperidine-4-carboxamide] | 0.024 | 0.052 |
